The target in assay [1] is glutathionylspermidine synthetase (GspS). Nature of the assay: Kinetic analysis of GspS by HPLC determination of the product Gsp. The class given is biochemical, C. fasciculata. Particulars: 25.0° C.; for Ki: pH 7.5; for Km: substrates of GspS, rapid equilibrium random-order mechanism, pH 7.5, 5 mM magnesium, read-out: limiting Km (dissociation constant of the quarternary complex). The protocol: Production of starting material: C. fasciculata was grown in a medium previously described (27) in a 100-1 fermenter at 27° C. with continuous stirring (200 rpm) and aeration (0.1 vvm). Organisms were harvested in the late logarithmic growth phase by continous flow centrifugation. The pellet was resuspended with 100 mM HEPES buffer (pH 7.5) containing 1 mM DTT and 1 mM MgSO4. After centrifugation the cells were stored at −20° C. GspS, Assay: The assays were carried out at 25.0° C. in a volume of 0.9 ml containing 50 mM Bis-Tris-propane, 50 mM Tris, pH 7.5, 5 mM MgSO4, 1 mM EDTA, 5 mM DTT, 5 mM ATP, 10 mM GSH, and 10 mM spermidine (1). The assay for TS was carried out as described by Smith et al. (1). Aliquots were taken after 20 min. For thiol analysis a precolumn derivatization with the fluorescent thiol-specific reagent, monobromobimane (Calbiochem), was used as described previously (2). All samples for HPLC analysis were diluted four-fold with water. Separation and analytical conditions were as described previously (28). HPLC-analysis was performed with a Jasco-HPLC-system consisting of an autosampler (851-AS), a pump (PU-980), a ternary gradient unit (LG-980-02), and a highly sensitive fluorescence detector (FP-920), which enabled a precise analysis of the small product peak in the presence of numerous other and larger ones. An external standard (0.04 mM Gsp) was used for integration calibration of the samples.
All kinetic experiments were carried out at 25.0° C. in a volume of 0.9 ml containing 50 mM Bis-Tris-propane, 50 mM Tris, pH 7.5, 1 mM EDTA, 5 mM DTT and variable concentrations of ATP (0.10, 0.13, 0.18, 0.28, 0.66 mM ATP), GSH (0.36, 0.47, 0.66, 1.11, 3.57 mM GSH), and spermidine (0.36, 0.47, 0.66, 1.11, 3.57 mM spermidine), respectively. The enzymatic tests for kinetic studies except the ADP inhibition studies were performed in the presence of phosphoenolpyruvate (10 mM) and pyruvate kinase (0.5 units). A fixed magnesium concentration of 5 mM and a GspS content of 0.072 mg (0.923 μM) was used. Aliquots were taken at 15 min and 30 min. GspS activity was analyzed by product determination as described in example 1.

Assay [2] concerns glutathionylspermidine synthetase (GspS). Nature of the assay: Malachite green colorimetric assay for liberation of inorganic phosphate. The class given is biochemical, C. fasciculata. Particulars: ADP 0-10 mM at ATP 0.2-5 mM; competitive with respect to ATP. The protocol:
FIG. 9. Malachite green colorimetric assay for liberation of inorganic phosphate. The malachite green calorimetric assay for liberation of inorganic phosphate (1) was used for fast detection of GspS activity.
The standard assay was carried out at 25.0° C. in a volume of 0.15 ml containing 50 mM Bis-Tris-propane, 50 mM Tris, pH 7.5, 5 mM MgSO4, 1 mM EDTA, 5 mM DTT, 5 mM ATP, 10 mM GSH, 10 mM spermidine, and GspS. After an incubation of 10 min the malachite green reagent was added for detection of GspS activity.
Concentration of ATP (see heading) and ADP (see table).
The liberation of inorganic phosphate from ATP can be easily visualized by malachite green (FIG. 9). The test is amply used to monitor ATP hydrolyzing activities and is correspondingly unspecific. […] This finding enabled us to use this fast and convenient test to measure specifically GspS activity which is accompanied by release of inorganic phosphate from ATP in the presence of glutathione, spermidine, and magnesium ions. The test can be easily adapted to mass screening as outlined below.

In general, Ki refers to the dissociation constant of the complex between target and ligand, obtained from inhibition or displacement. Consider `Nc1ncnc2c1ncn2[C@@H]1O[C@H](COP(=O)(O)OP(=O)(O)O)[C@@H](O)[C@H]1O` [ADP], for which the affinity in assay [1] (inhibition of GspS, competitive with respect to ATP, no ATP regenerating system) corresponds to a Ki of 80 µM. Further, in assay [2], the “inhibition of GspS” value is on record as “significantly inhibits”. A word on the Km: it is the concentration of substrate that gives half-maximal velocity. For `N[C@@H](CCC(=O)N[C@@H](CS)C(=O)NCC(=O)O)C(=O)O` [GSH, glutathione], the Michaelis-Menten constant (Km) in assay [1] came to 2510 ± 330 µM. With `N[C@@H](CCC(=O)N[C@@H](CS)C(=O)NCC(=O)NCCCCNCCCNC(=O)CNC(=O)[C@H](CS)NC(=O)CC[C@H](N)C(=O)O)C(=O)O` [TSH, N^1, N^8-bis(glutathionyl)spermidine], the Ki in assay [1] (feed-back inhibition of GspS, competed by GSH) stood at 480 µM. Regarding `NCCCCNCCCN` [spermidine], the Michaelis-Menten constant (Km) in assay [1] came to 470 ± 90 µM. On to adenosyltriphosphate [Mg^2+-ATP], for which the Km in assay [1] worked out at 250 ± 20 µM.

The record behind these values is patent US20020155562A1, “Glutathionylspermidine synthetase and processes for recovery and use thereof” (Leopold Flohe, priority 1996, published 2002).
